Experimental data as given in patent US20220089592A1, “IMIDAZO[1,2-A]PYRIDINYL DERIVATIVES AS IRAK4 INHIBITORS” (priority 2019, published 2022).

Tests used:
[1] = target: T1, IRAK4 (Homo sapiens, UniProt Q9NWZ3); assay: 2-hour 1 mM ATP IRAK4 Biochemical assay (as above, but with 100 pM IRAK4 and 1 mM ATP); conditions: IRAK4 MSD BIOCHEMICAL (1 mM ATP) IC50 (μM), 100 pM IRAK4, 2 hours
T1 sequence (Q9NWZ3 1-460): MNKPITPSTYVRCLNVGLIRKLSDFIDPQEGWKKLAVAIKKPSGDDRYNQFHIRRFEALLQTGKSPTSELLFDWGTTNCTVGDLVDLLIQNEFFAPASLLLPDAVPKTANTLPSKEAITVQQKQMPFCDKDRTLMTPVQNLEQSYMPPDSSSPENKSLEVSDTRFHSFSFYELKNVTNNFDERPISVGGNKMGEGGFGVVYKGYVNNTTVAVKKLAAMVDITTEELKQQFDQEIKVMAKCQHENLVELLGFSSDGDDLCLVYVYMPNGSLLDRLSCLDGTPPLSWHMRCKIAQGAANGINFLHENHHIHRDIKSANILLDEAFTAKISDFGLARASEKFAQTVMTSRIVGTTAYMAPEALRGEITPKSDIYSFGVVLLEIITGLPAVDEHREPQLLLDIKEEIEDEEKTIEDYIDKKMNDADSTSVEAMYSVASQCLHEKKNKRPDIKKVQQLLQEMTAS
Procedure, shortened: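 MSD electrochemiluminescence read-out: biotinylated peptide product bound to streptavidin plates, probed with anti-P-Thr rabbit antibody and Sulfo-Tag goat anti-rabbit. Kinase reaction used 1 mM ATP and 100 pM IRAK4 over 2 hours before EDTA quench.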

[2] = target: T1, IRAK4; assay: 2-hour 10 μM ATP Biochemical Assay (MesoScale Detection format; IRAK4 phosphorylation of biotin labeled IRAK1 activation loop peptide)
Procedure, shortened: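 Electrochemiluminescent MSD readout: after streptavidin capture, phosphothreonine on the biotin-labelled IRAK1 activation-loop peptide detected by rabbit antibody and Sulfo-Tag secondary. Phosphorylation ran 2 h with 10 μM ATP before EDTA quench.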

[3] = IRAK4 MSD BIOCHEMICAL (10 μM ATP) IC50 (μM), 1 nM IRAK4, 2 hours

Row | IC50 [1] | IC50 [2, 3] | IC50 ([2]; read-out: IRAK4 MSD BIOCHEMICAL (10 μM ATP) IC50, 1 nM IRAK4, 2 hours) | SMILES
1 | 0.001 µM | 0.001 µM | – | CCOc1cc2nc(C(C)C3CCOC3)cn2cc1NC(=O)c1cccc(C(F)(F)F)n1 (mixture of isomers) [Example 137, N-(7-ethoxy-2-(1-(tetrahydrofuran-3-yl)ethyl)imidazo[1,2-a]pyridin-6-yl)-6-(trifluoromethyl)picolinamide]
2 | 0.001 µM | 0.001 µM | – | CCOc1cc2nc(C(F)C3CCOC3)cn2cc1NC(=O)c1cccc(C(F)(F)F)n1 (mixture of isomers) [Example 142, N-(7-ethoxy-2-(fluoro(tetrahydrofuran-3-yl)methyl)imidazo[1,2-a]pyridin-6-yl)-6-(trifluoromethyl)picolinamide]
3 | 0.004 µM | 0.002 µM | – | CCOc1cc2nc(C3CC34CCOC4)cn2cc1NC(=O)c1cccc(C(F)F)n1 (mixture of isomers) [Example 171, 6-(difluoromethyl)-N-(7-ethoxy-2-(5-oxaspiro[2.4]heptan-1-yl)imidazo[1,2-a]pyridin-6-yl)picolinamide]
4 | 0.001 µM | 0.001 µM | – | C[C@@H]1C[C@@H](Oc2cc3nc(C4CCOCC4)cn3cc2NC(=O)c2cccc(C(F)F)n2)CCO1 (relative stereo) [Example 186, 6-(difluoromethyl)-N-(7-(((2R*,4S*)-2-methyltetrahydro-2H-pyran-4-yl)oxy)-2-(tetrahydro-2H-pyran-4-yl)imidazo[1,2-a]pyridin-6-yl)picolinamide]
5 | 0.001 µM | 0.001 µM | – | CCOc1cc2nc([C@]34CCOC[C@H]3C4)cn2cc1NC(=O)c1cccc(C(F)F)n1 (relative stereo) [Example 249, N-(2-((1S*,6R*)-3-oxabicyclo[4.1.0]heptan-6-yl)-7-ethoxyimidazo[1,2-a]pyridin-6-yl)-6-(difluoromethyl)picolinamide]
6 | 0.001 µM | 0.001 µM | – | CCOc1cc2nc(C3C[C@@H](C)O[C@@H](C)C3)cn2cc1NC(=O)c1cccc(C(F)(F)F)n1 (relative stereo) [Example 250, N-(2-((2R*,6S*)-2,6-dimethyltetrahydro-2H-pyran-4-yl)-7-ethoxyimidazo[1,2-a]pyridin-6-yl)-6-(trifluoromethyl)picolinamide]
7 | 0.001 µM | 0.001 µM | – | CCOc1cc2nc(C[C@H]3CCOC3)cn2cc1NC(=O)c1cccc(C(F)F)n1 (single isomer, unassigned) [Example 15]
8 | 0.001 µM | 0.001 µM | – | CCOc1cc2nc(C[C@@H]3CCOC3)cn2cc1NC(=O)c1cccc(C(F)F)n1 (single isomer, unassigned) [Example 16]
9 | 0.004 µM | – | 0.001 µM | CCOc1nc2nc(CC3CCOC3)cn2cc1NC(=O)c1cccc(C(F)(F)F)n1 (single isomer, unassigned) [Example 94]
10 | 0.003 µM | 0.001 µM | – | CCOc1nc2nc(CC3CCOC3)cn2cc1NC(=O)c1cccc(C(F)(F)F)n1 (single isomer, unassigned) [Example 95]
11 | 0.001 µM | 0.001 µM | – | CCOc1cc2nc([C@H](C)[C@@H]3CCOC3)cn2cc1NC(=O)c1cccc(C(F)(F)F)n1 (single isomer, unassigned) [Example 138]
12 | 0.001 µM | 0.001 µM | – | CCOc1cc2nc(C(C)C3CCOC3)cn2cc1NC(=O)c1cccc(C(F)(F)F)n1 (single isomer, unassigned) [Example 139]
13 | 0.001 µM | 0.001 µM | – | CCOc1cc2nc([C@@H](C)[C@@H]3CCOC3)cn2cc1NC(=O)c1cccc(C(F)(F)F)n1 (single isomer, unassigned) [Example 140]
14 | 0.001 µM | 0.001 µM | – | CCOc1cc2nc([C@H](C)[C@H]3CCOC3)cn2cc1NC(=O)c1cccc(C(F)(F)F)n1 (single isomer, unassigned) [Example 141]
15 | 0.002 µM | 0.001 µM | – | CCOc1cc2nc([C@H](F)[C@@H]3CCOC3)cn2cc1NC(=O)c1cccc(C(F)(F)F)n1 (single isomer, unassigned) [Example 143]
16 | 0.001 µM | 0.001 µM | – | CCOc1cc2nc(C(F)C3CCOC3)cn2cc1NC(=O)c1cccc(C(F)(F)F)n1 (single isomer, unassigned) [Example 144]
17 | 0.002 µM | 0.001 µM | – | CCOc1cc2nc([C@@H](F)[C@@H]3CCOC3)cn2cc1NC(=O)c1cccc(C(F)(F)F)n1 (single isomer, unassigned) [Example 145]

Row | IC50 [1] | IC50 [2, 3] | IC50 ([2]; read-out: IRAK4 MSD BIOCHEMICAL (10 μM ATP) IC50, 1 nM IRAK4, 2 hours) | SMILES
18 | 0.001 µM | 0.001 µM | – | CCOc1cc2nc([C@H](F)[C@H]3CCOC3)cn2cc1NC(=O)c1cccc(C(F)(F)F)n1 (single isomer, unassigned) [Example 146]
19 | 0.005 µM | 0.003 µM | – | CC1(COc2cc3nc(C[C@@H]4CCOC4)cn3cc2NC(=O)c2cccc(C(F)(F)F)n2)COC1 (single isomer, unassigned) [Example 164]
20 | 0.006 µM | 0.002 µM | – | CC1(COc2cc3nc(C[C@H]4CCOC4)cn3cc2NC(=O)c2cccc(C(F)(F)F)n2)COC1 (single isomer, unassigned) [Example 165]
21 | 0.009 µM | 0.003 µM | – | CCOc1cc2nc([C@@H](O)C3CC3)cn2cc1NC(=O)c1cccc(C(F)(F)F)n1 (single isomer, unassigned) [Example 169]
22 | 0.012 µM | 0.004 µM | – | CCOc1cc2nc([C@H](O)C3CC3)cn2cc1NC(=O)c1cccc(C(F)(F)F)n1 (single isomer, unassigned) [Example 170]
23 | 0.005 µM | 0.002 µM | – | CCOc1cc2nc([C@H]3C[C@@H]3F)cn2cc1NC(=O)c1cccc(C(F)F)n1 (stereo in doubt) [Example 253, 6-(difluoromethyl)-N-(7-ethoxy-2-((1R*,2S*)-2-fluorocyclopropyl)imidazo[1,2-a]pyridin-6-yl)picolinamide]
24 | 0.005 µM | 0.002 µM | – | CCOc1cc2nc([C@@H]3C[C@H]3F)cn2cc1NC(=O)c1cccc(C(F)F)n1 (stereo in doubt) [Example 254, 6-(difluoromethyl)-N-(7-ethoxy-2-((1S*, 2R*)-2-fluorocyclopropyl)imidazo[1,2-a]pyridin-6-yl)picolinamide]
25 | 0.011 µM | 0.003 µM | – | CCOc1cc2nc(CC)cn2cc1NC(=O)c1cccc(C(F)(F)F)n1 [Example 1, N-(7-ethoxy-2-ethylimidazo[1,2-a]pyridin-6-yl)-6-(trifluoromethyl)picolinamide]
26 | 0.016 µM | 0.003 µM | – | CCOc1cc2nc(C3CC3)cn2cc1NC(=O)c1cccc(C(F)(F)F)n1 [Example 2, N-(2-cyclopropyl-7-ethoxyimidazo[1,2-a]pyridin-6-yl)-6-(trifluoromethyl)picolinamide]
27 | 0.009 µM | 0.006 µM | – | CCOc1cc2nc(C3CC3)cn2cc1NC(=O)c1cccc(C(F)F)n1 [Example 3, N-(2-cyclopropyl-7-ethoxyimidazo[1,2-a]pyridin-6-yl)-6-(difluoromethyl)picolinamide]
28 | 0.015 µM | 0.004 µM | – | COc1cc2nc(C3CC3)cn2cc1NC(=O)c1cccc(C(F)F)n1 [Example 4, N-(2-cyclopropyl-7-methoxyimidazo[1,2-a]pyridin-6-yl)-6-(difluoromethyl)picolinamide]
29 | – | 0.002 µM | – | COc1cc(NC(=O)c2cccc(C(F)F)n2)cn2cc(C34COC(C)(C3)C4)nc12 [Example 508, 6-(difluoromethyl)-N-(8-methoxy-2-(1-methyl-2-oxabicyclo[2.1.1]hexan-4-yl)imidazo[1,2-a]pyridin-6-yl)picolinamide 2,2,2-trifluoroacetate]
30 | – | 0.002 µM | – | COc1cc(NC(=O)c2cccc(C(F)F)n2)cn2cc(C3CC4CCC(C3)O4)nc12 (stereo not shown) [Example 509, N-(2-(8-oxabicyclo[3.2.1]octan-3-yl)-8-methoxyimidazo[1,2-a]pyridin-6-yl)-6-(difluoromethyl)picolinamide 2,2,2-trifluoroacetate]
31 | – | 0.004 µM | – | COc1cc(NC(=O)c2cccc(C(F)F)n2)cn2cc(C34CC(C#N)(C3)C4)nc12 [Example 511, N-(2-(3-cyanobicyclo[1.1.1]pentan-1-yl)-8-methoxyimidazo[1,2-a]pyridin-6-yl)-6-(difluoromethyl)picolinamide 2,2,2-trifluoroacetate]
32 | – | 0.004 µM | – | COc1cc(NC(=O)c2cccc(C(F)F)n2)cn2cc(C34CC(C(F)F)(C3)C4)nc12 [Example 512, 6-(difluoromethyl)-N-(2-(3-(difluoromethyl)bicyclo[1.1.1]pentan-1-yl)-8-methoxyimidazo[1,2-a]pyridin-6-yl)picolinamide 2,2,2-trifluoroacetate]
33 | – | 0.011 µM | – | COc1cc(NC(=O)c2cccc(C(F)F)n2)cn2cc(C34COC(C3)C4)nc12 [Example 544, N-(2-(2-oxabicyclo[2.1.1]hexan-4-yl)-8-methoxyimidazo[1,2-a]pyridin-6-yl)-6-(difluoromethyl)picolinamide 2,2,2-trifluoroacetate]
